Results on two compounds are retold here after ChEMBL document CHEMBL1143365, “Function-oriented synthesis applied to the anti-botulinum natural product toosendanin” (Bioorg Med Chem, 2009).

SMILES strings stand for the structures. Calls of active or inactive are those of the source. No cut-off for these calls is given here.

Data set [1] concerns Mus musculus. Kind of data set: Antibotulinum activity against botulinum neurotoxin serotype A-induced toxicity in iv dosed mouse assessed as time to death. It is filed as functional.
For data set [2], the system named is Mus musculus. Kind of data set: Antibotulinum activity against botulinum neurotoxin serotype A-induced toxicity in iv dosed mouse after 48 hrs. It is filed as functional, organism-based.
The species named for data set [3] is Mus musculus. The experiment in a line: Toxicity in mouse at 2.5 mM. Particulars: in vivo, 2500 µM. It is filed as organism-based.

Regarding `CC(=O)O[C@@H]1C[C@H](O)[C@@]23CO[C@@H](O)[C@]1(C)[C@@H]2C[C@@H](O)[C@]1(C)[C@@H]3C(=O)[C@H](OC(C)=O)[C@@]2(C)[C@H](c3ccoc3)C[C@H]3O[C@]321` [TOOSENDANIN], the Activity in the data set with Mus musculus [1] turned out to be 7.1 h.

On to `CC(=O)OC1C(=O)CC(C)(C)C23OC2CC(c2ccccc2)C13C` (racemic), for which the result in the data set with Mus musculus [2] was inactive. In addition, in the data set listed under Mus musculus [3], the Activity entry was “Non-toxic”.
